Assay results taken from patent publication US10947291B2, “Treating type I and type II diabetes” (Mayo Foundation for Medical Education and Research, priority 2013, dated 2021).

Tested on: female mice (C57/BL6) with streptozocin-induced hyperglycemia
Experiment: AAV1.CMV.insulin.RSV.icasp9 and AP20187 in streptozocin-treated C57/BL6 mice, blood glucose
Assay type: in vivo
Details: IP 10 mg/kg, five consecutive days starting on day 14 after AAV1.CMV.insulin.RSV.icasp9 (FIG. 6)
Protocol: FIG. 6 is a graph plotting glucose levels for three groups of mice. One group was treated intraperitoneally (IP) with streptozocin (STZ) for two weeks to develop hyperglycemia. A second group was treated intraperitoneally (IP) with streptozocin (STZ) for two weeks to develop hyperglycemia and then administered AAV1.CMV.insulin.RSV.icasp9 (AAV1) intramuscularly (IM) on day zero. The third group was treated intraperitoneally (IP) with streptozocin (STZ) for two weeks to develop hyperglycemia, was then administered AAV1.CMV.insulin.RSV.icasp9 (AAV1) intramuscularly (IM) on day zero followed by intraperitoneal (IP) administration of AP20187 (B/B) on days 14, 15, 16, 17, and 18.
To induce diabetes in mice, three groups of female mice (C57/BL6) were given, on 5 consecutive days, an intraperitoneal (IP) injection of Streptozocin (STZ; Sigma cat #50130) at 45 mg/kg body weight dissolved in 0.1 mol/L citrate buffer (pH 4.5) immediately before administration. Two weeks later, when hyperglycemia developed, two groups of mice were injected intramuscularly (IM) with 1×10E11 particles/mice of AAV1.CMV.insulin.RSV.icasp9. Blood glucose levels were determined using a Contour blood glucose test strips (Bayer HealthCare LLC). 14 days later, one group of mice was injected via IP injection with 10 mg/kg of AP20187 (B/B homodimerizer; Clontech, Cat. No. AP20187) for 5 consecutive days.

## CC[C@H](C(=O)N1CCCCC1C(=O)O[C@H](CCc1ccc(OC)c(OC)c1)c1cccc(OCC(=O)NCC(CNC(=O)COc2cccc([C@@H](CCc3ccc(OC)c(OC)c3)OC(=O)[C@@H]3CCCCN3C(=O)[C@@H](CC)c3cc(OC)c(OC)c(OC)c3)c2)CN(C)C)c1)c1cc(OC)c(OC)c(OC)c1 (stereo partly shown) [AP20187]
  glucose levels after induction of the iCasp9 death switch: steady increase in glucose levels
